Results taken from patent publication US20220251079A1, “BENZO[B][1,8]NAPHTHYRIDINE ACETIC ACID DERIVATIVES AND METHODS OF USE” (STINGTHERA, INC., priority 2019, published 2022).

Assays:
[1] = target: T1, human STING protein (140-379) (Homo sapiens, UniProt Q86WV6, H232R); experiment: Radiometric filtration binding competition assay (WT_FBA_HIS-SUMO-hSWAT); conditions: read-out: WT-hSWAT IC50
T1 construct: 6XHIS-SUMO-hSTING (140-379); made in house; host or cells: BL-21(DE3) E. coli, pET vector
Method in brief: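 Compounds (2-fold dilutions, 8 points, top 300 μM) were preincubated for 30 min with 0.5 μM recombinant C-terminal STING domain, human residues 140-379 or mouse residues 139-328, His-SUMO tagged. Displacement of a tritium-labelled probe was read by filtration and scintillation counting. Dose-response fits gave IC50, then Ki.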

hSTING-R232 = target: T2, hSTING-R232 (Homo sapiens, UniProt Q86WV6, H232R); experiment: STING Differential Scanning Fluorimetry (DSF) assay, human; assay type: binding; conditions: human STING R232-WT, 5 μM protein
T2 construct: recombinant mouse or human STING protein (aa140-379); 6xHis-SUMO elsewhere) (cleaved yes); made in house
Method in brief: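 Purified STING C-terminal domain (aa140-379, R232), human or mouse, at 5 μM in 100 mM NaCl, 30 mM HEPES pH 7.5 with SYBR Orange, was heated at 0.5° C./min. Tm came from dF/dT; ΔTm and FC50 were derived from an 11-point 2-fold series from 300 μM, in duplicate.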

STING protein = target: T3, STING protein (Homo sapiens, UniProt Q86WV6, H232R); experiment: Cell based reporter assay of IRF activation (THP1-dual-KI R232, IRF luciferase); conditions: THP-1; read-out: THP1-dual-KI R232_IRF(Luciferase)_Activity Maximum measured (%)
T3 construct: host or cells: THP-1 dual reporter cells, TMEM173 modified from HAQ to R232 (THP1-dual-KI R232)
Method in brief: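 THP-1 monocytes stably carried an ISG54/5×ISRE firefly luciferase IRF reporter, with TMEM173 knock-in H71R A230G Q293R (R232 variant), and there was no PMA pre-activation. Compounds were tested at 8 points, 2-fold, in duplicate from 150 µM. Cell Titer Glo was applied after supernatant removal.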

T3 sequence (Q86WV6 whole entry H232R): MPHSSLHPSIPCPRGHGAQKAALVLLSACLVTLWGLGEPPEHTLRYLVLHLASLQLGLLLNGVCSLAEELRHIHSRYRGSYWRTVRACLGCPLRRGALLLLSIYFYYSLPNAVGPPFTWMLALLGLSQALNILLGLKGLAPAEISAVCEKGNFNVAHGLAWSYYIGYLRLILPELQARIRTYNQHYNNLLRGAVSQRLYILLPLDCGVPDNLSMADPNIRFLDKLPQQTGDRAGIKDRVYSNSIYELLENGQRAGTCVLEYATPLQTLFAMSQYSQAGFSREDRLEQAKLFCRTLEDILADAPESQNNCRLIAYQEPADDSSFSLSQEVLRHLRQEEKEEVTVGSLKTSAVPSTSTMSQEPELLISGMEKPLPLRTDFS
T1 sequence (Q86WV6 140-379 H232R): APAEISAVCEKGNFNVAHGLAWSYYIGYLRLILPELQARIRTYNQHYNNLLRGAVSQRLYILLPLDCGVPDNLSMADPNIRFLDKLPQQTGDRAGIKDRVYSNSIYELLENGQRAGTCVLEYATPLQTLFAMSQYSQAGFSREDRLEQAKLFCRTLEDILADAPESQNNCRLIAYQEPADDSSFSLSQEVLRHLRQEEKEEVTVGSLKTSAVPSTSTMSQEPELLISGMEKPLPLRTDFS
T2 sequence (Q86WV6 140-379 H232R): as above

Row | Structure (SMILES) | IC50 [1] [µM] | WT_DSF_hSWAT Tm Shift (° C.) (hSTING-R232) | Emax (STING protein) [%]
1 | CSc1c(Cl)ccc2c(=O)c3ccc(N(CC4CC4)CC4COC4)nc3n(CC(=O)O)c12 [Compound 38, sodium 2-(8-chloro-2-((cyclopropylmethyl)(oxetan-3-ylmethyl)amino)-9-(methylthio)-5-oxobenzo[b][1,8]naphthyridin-10(5H)-yl)acetate] | 20 to 100 | D (“D” > 7° C.) | > 50
2 | CSc1c(Cl)ccc2c(=O)c3ccc(N(C)c4ccccc4)nc3n(CC(=O)O)c12 [Compound 73, sodium 2-(8-chloro-2-(methyl(phenyl)amino)-9-(methylthio)-5-oxobenzo[b][1,8]naphthyridin-10(5H)-yl)acetate] | < 20 | D (“D” > 7° C.) | > 50
3 | CO[C@H]1C[C@H](N(C)c2ccc3c(=O)c4ccc(Cl)c(SC)c4n(CC(=O)O)c3n2)C1 (single isomer, unassigned) [Compound 70, 2-(8-chloro-2-(((1r,3r)-3-methoxycyclobutyl)(methyl)amino)-9-(methylthio)-5-oxobenzo[b][1,8]naphthyridin-10(5H)-yl)acetic acid] | < 20 | D (“D” > 7° C.) | > 50
4 | CSc1c(Cl)ccc2c(=O)c3ccc(N(C)C4CC(F)(F)C4)nc3n(CC(=O)O)c12 [Compound 41, Sodium 2-(8-chloro-2-((3,3-difluorocyclobutyl)(methyl)amino)-9-(methylthio)-5-oxobenzo[b][1,8]naphthyridin-10(5H)-yl)acetate] | 20 to 100 | D (“D” > 7° C.) | > 50
5 | CSc1c(Cl)ccc2c(=O)c3ccc(C4(C)CC4)nc3n(CC(=O)O)c12 [Compound 68, sodium 2-(8-chloro-2-(1-methylcyclopropyl)-9-(methylthio)-5-oxobenzo[b][1,8]naphthyridin-10(5H)-yl)acetate] | < 20 | D (“D” > 7° C.) | > 50
6 | CSc1c(Cl)ccc2c(=O)c3ccc(NCC4CC(F)(F)C4)nc3n(CC(=O)O)c12 [Compound 54, Sodium 2-(8-chloro-2-(((3,3-difluorocyclobutyl)methyl)amino)-9-(methylthio)-5-oxobenzo[b][1,8]naphthyridin-10(5H)-yl)acetate] | 20 to 100 | D (“D” > 7° C.) | > 50
7 | CSc1c(Cl)ccc2c(=O)c3ccc(C(C)=O)nc3n(CC(=O)O)c12 [Compound 32, sodium 2-(2-acetyl-8-chloro-9-(methylthio)-5-oxobenzo[b][1,8]naphthyridin-10(5H)-yl)acetate] | 100 to 300 | C (“C” = 2-7° C.) | > 50
8 | COCCN(CC(F)F)c1ccc2c(=O)c3ccc(Cl)c(SC)c3n(CC(=O)O)c2n1 [Compound 51, sodium 2-(8-chloro-2-((2,2-difluoroethyl)(2-methoxyethyl)amino)-9-(methylthio)-5-oxobenzo[b][1,8]naphthyridin-10(5H)-yl)acetate] | 20 to 100 | D (“D” > 7° C.) | > 50
9 | CCOc1c(Cl)ccc2c(=O)c3ccc(NCC4CCOCC4)nc3n(CC(=O)O)c12 [Compound 60, sodium 2-(8-chloro-9-ethoxy-5-oxo-2-(((tetrahydro-2H-pyran-4-yl)methyl)amino)benzo[b][1,8]naphthyridin-10(5H)-yl)acetate] | 20 to 100 | D (“D” > 7° C.) | > 50
10 | CCOc1c(Cl)ccc2c(=O)c3ccc(N(C)C)nc3n(CC(=O)O)c12 [Compound 23, sodium 2-(8-chloro-2-(dimethylamino)-9-ethoxy-5-oxobenzo[b][1,8]naphthyridin-10(5H)-yl)acetate] | 100 to 300 | C (“C” = 2-7° C.) | > 50
11 | CSc1c(Cl)ccc2c(=O)c3ccc(Nc4ccccc4F)nc3n(CC(=O)O)c12 [Compound 57, sodium 2-(8-chloro-2-((2-fluorophenyl)amino)-9-(methylthio)-5-oxobenzo[b][1,8]naphthyridin-10(5H)-yl)acetate] | < 20 | D (“D” > 7° C.) | > 50
12 | CCOc1c(Cl)ccc2c(=O)c3ccc(C(C)=O)nc3n(CC(=O)O)c12 [Compound 31, sodium 2-(2-acetyl-8-chloro-9-ethoxy-5-oxobenzo[b][1,8]naphthyridin-10(5H)-yl)acetate] | 100 to 300 | C (“C” = 2-7° C.) | > 50
13 | CSc1c(Cl)ccc2c(=O)c3ccc(C(C)(C)C#N)nc3n(CC(=O)O)c12 [Compound 24, sodium 2-(8-chloro-2-(2-cyanopropan-2-yl)-9-(methylthio)-5-oxobenzo[b][1,8]naphthyridin-10(5H)-yl)acetate] | 20 to 100 | D (“D” > 7° C.) | > 50
14 | Cc1ccc2c(=O)c3ccc(Cl)c(N(C)C)c3n(CC(=O)NS(C)(=O)=O)c2n1 [Compound 10] | > 300 | C (“C” = 2-7° C.) | > 50
15 | CN(C)c1c(Cl)ccc2c(=O)c3ccc(C(C)(C)C)nc3n(CC(=O)O)c12 [Compound 5, [2-tert-butyl-8-chloro-9-(dimethylamino)-5-oxobenzo[b]1,8-naphthyridin-10-yl]acetic acid] | < 20 | D (“D” > 7° C.) | > 50
16 | CSc1c(Cl)ccc2c(=O)c3ccc(N(C)CC4CCOCC4)nc3n(CC(=O)O)c12 [Compound 27, 2-(8-chloro-2-(methyl((tetrahydro-2H-pyran-4-yl)methyl)amino)-9-(methylthio)-5-oxobenzo[b][1,8]naphthyridin-10(5H)-yl)acetic acid] | 20 to 100 | D (“D” > 7° C.) | > 50
17 | CCN(CCOC)c1nc2c(cc1Cl)c(=O)c1ccc(Cl)c(SC)c1n2CC(=O)O [Compound 59, sodium 2-(3,8-dichloro-2-(ethyl(2-methoxyethyl)amino)-9-(methylthio)-5-oxobenzo[b][1,8]naphthyridin-10(5H)-yl)acetate] | 20 to 100 | D (“D” > 7° C.) | > 50
18 | CO[C@H]1C[C@@H](N(C)c2ccc3c(=O)c4ccc(Cl)c(SC)c4n(CC(=O)O)c3n2)C1 (single isomer, unassigned) [Compound 44, 2-(8-chloro-2-(((1s,3s)-3-methoxycyclobutyl) (methyl)amino)-9-(methylthio)-5-oxobenzo[b][1,8]naphthyridin-10(5H)-yl)acetic acid] | 20 to 100 | D (“D” > 7° C.) | > 50
19 | CO[C@H]1C[C@@H](N(C)c2ccc3c(=O)c4ccc(C)c(N(C)C)c4n(CC(=O)O)c3n2)C1 [Compound 67, 2-(9-(dimethylamino)-2-(((1s,3s)-3-methoxycyclobutyl)(methyl)amino)-8-methyl-5-oxobenzo[b][1,8]naphthyridin-10(5H)-yl)acetic acid] | < 20 | D (“D” > 7° C.) | > 50
20 | CSc1c(Cl)ccc2c(=O)c3ccc(N(C)CCn4ccnc4)nc3n(CC(=O)O)c12 [Compound 71, Sodium 2-(8-chloro-2-{[2-(imidazole-1-yl)ethyl](methyl)amino}-9-(methylsulfanyl)-5-oxobenzo[b]1,8-naphthyridin-10-yl)acetate] | 20 to 100 | D (“D” > 7° C.) | 5 to 25
